Measurements taken from paper PMC11345841, “Exploring 2-Sulfonylpyrimidine Warheads as Acrylamide Surrogates for Targeted Covalent Inhibition: A BTK Story” (Journal of Medicinal Chemistry, 2024).
Read-outs that look alike come from different tables or passages of the source.

Columns and labels:
Assay in all cases: KINOMEscan ScanTK
Type in all cases: binding
BLK = target: T1, BLK (Homo sapiens, UniProt P51451); conditions: for remaining binding at 1 µM / difference in %Control vs reference Ib at 1 µM: BLK; for difference in %Control vs reference Ib at 1 µM: read-out: % difference (compound - Ib %Control)
T1 construct: purchased Eurofins DiscoverX KINOMEscan (scanTK)
T1 sequence (P51451 whole entry): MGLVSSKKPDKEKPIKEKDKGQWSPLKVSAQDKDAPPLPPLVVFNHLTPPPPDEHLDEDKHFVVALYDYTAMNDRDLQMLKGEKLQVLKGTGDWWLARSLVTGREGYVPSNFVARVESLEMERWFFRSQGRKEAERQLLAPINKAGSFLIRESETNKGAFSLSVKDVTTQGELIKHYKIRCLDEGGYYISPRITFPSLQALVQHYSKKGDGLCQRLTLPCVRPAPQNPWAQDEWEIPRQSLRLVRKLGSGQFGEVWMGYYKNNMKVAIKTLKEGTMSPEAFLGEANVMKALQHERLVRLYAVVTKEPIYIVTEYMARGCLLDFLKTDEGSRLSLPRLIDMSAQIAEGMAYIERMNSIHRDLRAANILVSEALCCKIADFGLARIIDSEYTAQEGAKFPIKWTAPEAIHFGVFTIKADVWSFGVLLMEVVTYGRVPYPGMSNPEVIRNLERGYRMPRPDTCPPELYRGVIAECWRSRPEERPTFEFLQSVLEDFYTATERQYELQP

CSF1R-autoinhibited = target: T2, CSF1R-autoinhibited (Homo sapiens, UniProt P07333)
T2 construct: purchased Eurofins DiscoverX KINOMEscan (scanTK)
T2 sequence (P07333 539-972 limits assumed): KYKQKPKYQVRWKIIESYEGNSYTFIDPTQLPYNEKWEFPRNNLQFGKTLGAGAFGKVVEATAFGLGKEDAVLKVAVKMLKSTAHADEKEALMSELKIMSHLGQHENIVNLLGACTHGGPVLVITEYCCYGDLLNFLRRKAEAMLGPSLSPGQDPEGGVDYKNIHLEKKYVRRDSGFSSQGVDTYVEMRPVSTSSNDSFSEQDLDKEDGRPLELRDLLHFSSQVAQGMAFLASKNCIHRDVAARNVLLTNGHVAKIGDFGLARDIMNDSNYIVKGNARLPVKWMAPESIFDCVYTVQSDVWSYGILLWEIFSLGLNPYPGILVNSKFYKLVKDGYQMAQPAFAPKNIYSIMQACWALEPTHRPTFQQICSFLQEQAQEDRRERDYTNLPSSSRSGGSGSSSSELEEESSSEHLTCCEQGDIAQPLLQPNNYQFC

CSK = target: T3, CSK (Homo sapiens, UniProt P41240)
T3 construct: purchased Eurofins DiscoverX KINOMEscan (scanTK)
T3 sequence (P41240 whole entry): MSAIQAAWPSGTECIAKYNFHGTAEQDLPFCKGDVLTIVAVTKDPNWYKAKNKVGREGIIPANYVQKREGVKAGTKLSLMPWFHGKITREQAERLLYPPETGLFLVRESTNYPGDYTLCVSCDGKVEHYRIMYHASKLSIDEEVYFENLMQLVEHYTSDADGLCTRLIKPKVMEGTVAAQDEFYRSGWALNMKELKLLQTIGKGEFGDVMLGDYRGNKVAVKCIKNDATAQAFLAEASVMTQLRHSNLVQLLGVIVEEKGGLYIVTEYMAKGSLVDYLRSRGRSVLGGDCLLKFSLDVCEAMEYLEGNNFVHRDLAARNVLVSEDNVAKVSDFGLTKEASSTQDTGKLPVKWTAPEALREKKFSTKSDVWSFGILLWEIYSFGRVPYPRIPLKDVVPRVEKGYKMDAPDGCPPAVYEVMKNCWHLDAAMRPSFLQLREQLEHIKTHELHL

ERBB2 = target: T4, ERBB2 (Homo sapiens, UniProt P04626); conditions: for remaining binding at 1 µM / difference in %Control versus compound Ib at 1 µM: ERBB2
T4 construct: purchased Eurofins DiscoverX KINOMEscan (scanTK)
T4 sequence (P04626 23-1255): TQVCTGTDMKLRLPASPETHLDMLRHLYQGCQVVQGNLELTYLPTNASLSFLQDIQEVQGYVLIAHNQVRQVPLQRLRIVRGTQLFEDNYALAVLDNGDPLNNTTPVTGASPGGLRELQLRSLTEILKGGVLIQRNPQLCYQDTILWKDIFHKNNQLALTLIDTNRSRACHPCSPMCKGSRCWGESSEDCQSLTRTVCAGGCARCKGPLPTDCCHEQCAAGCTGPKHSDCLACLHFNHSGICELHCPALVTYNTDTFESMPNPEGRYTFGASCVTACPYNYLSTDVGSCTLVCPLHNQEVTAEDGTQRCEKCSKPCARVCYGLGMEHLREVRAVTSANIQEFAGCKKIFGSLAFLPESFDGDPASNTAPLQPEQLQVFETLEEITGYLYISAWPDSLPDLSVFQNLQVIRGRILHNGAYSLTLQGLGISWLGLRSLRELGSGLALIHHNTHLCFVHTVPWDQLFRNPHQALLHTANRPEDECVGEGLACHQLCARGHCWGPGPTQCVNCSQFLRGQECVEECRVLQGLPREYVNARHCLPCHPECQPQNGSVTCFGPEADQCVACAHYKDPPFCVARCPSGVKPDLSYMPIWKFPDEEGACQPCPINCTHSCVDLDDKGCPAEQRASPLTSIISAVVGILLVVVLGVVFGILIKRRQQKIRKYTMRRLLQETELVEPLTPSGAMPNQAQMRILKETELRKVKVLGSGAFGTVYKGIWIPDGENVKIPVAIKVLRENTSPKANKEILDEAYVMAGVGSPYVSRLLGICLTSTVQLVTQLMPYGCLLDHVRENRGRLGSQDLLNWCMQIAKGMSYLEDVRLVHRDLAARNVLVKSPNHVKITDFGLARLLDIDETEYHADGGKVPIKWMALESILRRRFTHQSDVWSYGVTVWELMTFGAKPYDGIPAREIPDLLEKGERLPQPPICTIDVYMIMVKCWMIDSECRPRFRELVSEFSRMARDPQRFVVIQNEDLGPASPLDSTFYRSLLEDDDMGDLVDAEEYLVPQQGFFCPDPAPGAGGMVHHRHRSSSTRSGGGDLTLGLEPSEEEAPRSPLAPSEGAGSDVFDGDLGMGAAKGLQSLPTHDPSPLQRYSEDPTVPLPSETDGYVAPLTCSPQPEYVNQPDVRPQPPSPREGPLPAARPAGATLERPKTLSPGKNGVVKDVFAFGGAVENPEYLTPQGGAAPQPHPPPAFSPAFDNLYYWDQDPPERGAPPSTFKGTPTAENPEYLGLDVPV

ERBB3 = target: T5, ERBB3 (Homo sapiens, UniProt P21860); conditions: for remaining binding at 1 µM / % of control difference from compound Ib at 1 µM: ERBB3
T5 construct: purchased Eurofins DiscoverX KINOMEscan (scanTK)

[1] = target: T6, JAK1(JH1domain-catalytic) (Homo sapiens, UniProt P23458)
T6 construct: JAK1(JH1domain-catalytic); purchased Eurofins DiscoverX KINOMEscan (scanTK)
T6 sequence (P23458 875-1154 limits assumed): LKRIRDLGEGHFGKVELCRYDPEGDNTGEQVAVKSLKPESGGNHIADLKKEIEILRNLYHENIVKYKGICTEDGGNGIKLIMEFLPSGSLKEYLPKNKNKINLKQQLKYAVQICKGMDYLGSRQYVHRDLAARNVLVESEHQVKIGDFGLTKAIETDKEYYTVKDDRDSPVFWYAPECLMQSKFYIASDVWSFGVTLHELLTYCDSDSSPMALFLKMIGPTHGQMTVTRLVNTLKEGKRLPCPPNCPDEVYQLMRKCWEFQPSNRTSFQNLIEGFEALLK

[2] = target: T7, ABL1(T315I)-phosphorylated (Homo sapiens, UniProt P00519, T315I)
T7 construct: purchased Eurofins DiscoverX KINOMEscan (scanTK)

BMX = target: T8, BMX (Homo sapiens, UniProt P51813)
T8 construct: purchased Eurofins DiscoverX KINOMEscan (scanTK)
T8 sequence (P51813 1-675): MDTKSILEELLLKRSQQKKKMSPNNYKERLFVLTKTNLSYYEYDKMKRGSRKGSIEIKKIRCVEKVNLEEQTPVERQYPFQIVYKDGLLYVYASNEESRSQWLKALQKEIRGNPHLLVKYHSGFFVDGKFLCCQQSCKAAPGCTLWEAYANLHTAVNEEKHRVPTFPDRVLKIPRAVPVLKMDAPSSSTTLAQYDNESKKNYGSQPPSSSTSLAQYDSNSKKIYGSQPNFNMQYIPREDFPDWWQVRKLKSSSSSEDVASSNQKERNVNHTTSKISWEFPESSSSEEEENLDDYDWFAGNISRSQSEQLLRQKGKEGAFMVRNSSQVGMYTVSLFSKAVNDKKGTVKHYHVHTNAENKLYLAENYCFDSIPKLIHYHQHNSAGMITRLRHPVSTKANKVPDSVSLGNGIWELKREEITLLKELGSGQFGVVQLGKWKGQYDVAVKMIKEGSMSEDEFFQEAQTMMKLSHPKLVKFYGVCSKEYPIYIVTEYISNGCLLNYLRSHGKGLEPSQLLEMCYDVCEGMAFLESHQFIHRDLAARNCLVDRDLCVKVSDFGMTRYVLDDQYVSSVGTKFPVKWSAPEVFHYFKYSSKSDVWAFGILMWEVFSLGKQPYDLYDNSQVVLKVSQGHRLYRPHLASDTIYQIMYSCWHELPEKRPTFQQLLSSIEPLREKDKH

EGFR(L861Q) = target: T9, EGFR(L861Q) (Homo sapiens, UniProt P00533, L861Q)
T9 construct: purchased Eurofins DiscoverX KINOMEscan (scanTK)

INSRR = target: T10, INSRR (Homo sapiens, UniProt P14616)
T10 construct: purchased Eurofins DiscoverX KINOMEscan (scanTK)
T10 sequence (P14616 27-1297): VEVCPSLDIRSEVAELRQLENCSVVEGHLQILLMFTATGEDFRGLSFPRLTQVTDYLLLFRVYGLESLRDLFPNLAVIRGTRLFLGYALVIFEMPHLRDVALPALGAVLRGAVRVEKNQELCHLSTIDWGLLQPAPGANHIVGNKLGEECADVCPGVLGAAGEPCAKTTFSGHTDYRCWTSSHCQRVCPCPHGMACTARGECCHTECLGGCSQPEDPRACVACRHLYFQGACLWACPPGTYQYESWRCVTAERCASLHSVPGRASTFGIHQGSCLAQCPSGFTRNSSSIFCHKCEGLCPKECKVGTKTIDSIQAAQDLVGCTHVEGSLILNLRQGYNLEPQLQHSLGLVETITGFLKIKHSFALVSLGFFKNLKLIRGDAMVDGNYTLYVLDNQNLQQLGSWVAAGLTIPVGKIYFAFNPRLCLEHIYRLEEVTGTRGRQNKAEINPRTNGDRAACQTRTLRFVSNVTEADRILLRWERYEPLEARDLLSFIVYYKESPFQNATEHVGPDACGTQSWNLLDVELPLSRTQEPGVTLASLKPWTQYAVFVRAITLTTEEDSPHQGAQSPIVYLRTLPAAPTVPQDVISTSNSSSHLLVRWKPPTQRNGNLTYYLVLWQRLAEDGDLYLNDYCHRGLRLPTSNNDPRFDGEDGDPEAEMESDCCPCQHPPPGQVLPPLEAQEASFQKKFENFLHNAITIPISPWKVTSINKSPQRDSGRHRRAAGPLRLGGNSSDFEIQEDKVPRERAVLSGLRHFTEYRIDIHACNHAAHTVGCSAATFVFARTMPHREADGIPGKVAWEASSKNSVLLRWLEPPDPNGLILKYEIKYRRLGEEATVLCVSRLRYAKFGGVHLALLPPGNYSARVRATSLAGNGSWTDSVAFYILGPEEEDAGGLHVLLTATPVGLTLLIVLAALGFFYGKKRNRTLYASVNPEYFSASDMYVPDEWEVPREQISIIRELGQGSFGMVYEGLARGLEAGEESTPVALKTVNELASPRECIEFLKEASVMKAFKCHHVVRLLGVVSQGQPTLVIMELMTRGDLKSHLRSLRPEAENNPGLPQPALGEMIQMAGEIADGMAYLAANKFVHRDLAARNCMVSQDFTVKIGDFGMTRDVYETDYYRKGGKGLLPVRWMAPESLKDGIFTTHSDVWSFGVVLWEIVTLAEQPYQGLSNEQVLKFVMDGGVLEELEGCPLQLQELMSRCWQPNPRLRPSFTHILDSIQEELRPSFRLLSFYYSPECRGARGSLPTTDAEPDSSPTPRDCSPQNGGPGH

TNK2 = target: T11, TNK2 (Homo sapiens, UniProt Q07912)
T11 construct: purchased Eurofins DiscoverX KINOMEscan (scanTK)
T11 sequence (Q07912 whole entry): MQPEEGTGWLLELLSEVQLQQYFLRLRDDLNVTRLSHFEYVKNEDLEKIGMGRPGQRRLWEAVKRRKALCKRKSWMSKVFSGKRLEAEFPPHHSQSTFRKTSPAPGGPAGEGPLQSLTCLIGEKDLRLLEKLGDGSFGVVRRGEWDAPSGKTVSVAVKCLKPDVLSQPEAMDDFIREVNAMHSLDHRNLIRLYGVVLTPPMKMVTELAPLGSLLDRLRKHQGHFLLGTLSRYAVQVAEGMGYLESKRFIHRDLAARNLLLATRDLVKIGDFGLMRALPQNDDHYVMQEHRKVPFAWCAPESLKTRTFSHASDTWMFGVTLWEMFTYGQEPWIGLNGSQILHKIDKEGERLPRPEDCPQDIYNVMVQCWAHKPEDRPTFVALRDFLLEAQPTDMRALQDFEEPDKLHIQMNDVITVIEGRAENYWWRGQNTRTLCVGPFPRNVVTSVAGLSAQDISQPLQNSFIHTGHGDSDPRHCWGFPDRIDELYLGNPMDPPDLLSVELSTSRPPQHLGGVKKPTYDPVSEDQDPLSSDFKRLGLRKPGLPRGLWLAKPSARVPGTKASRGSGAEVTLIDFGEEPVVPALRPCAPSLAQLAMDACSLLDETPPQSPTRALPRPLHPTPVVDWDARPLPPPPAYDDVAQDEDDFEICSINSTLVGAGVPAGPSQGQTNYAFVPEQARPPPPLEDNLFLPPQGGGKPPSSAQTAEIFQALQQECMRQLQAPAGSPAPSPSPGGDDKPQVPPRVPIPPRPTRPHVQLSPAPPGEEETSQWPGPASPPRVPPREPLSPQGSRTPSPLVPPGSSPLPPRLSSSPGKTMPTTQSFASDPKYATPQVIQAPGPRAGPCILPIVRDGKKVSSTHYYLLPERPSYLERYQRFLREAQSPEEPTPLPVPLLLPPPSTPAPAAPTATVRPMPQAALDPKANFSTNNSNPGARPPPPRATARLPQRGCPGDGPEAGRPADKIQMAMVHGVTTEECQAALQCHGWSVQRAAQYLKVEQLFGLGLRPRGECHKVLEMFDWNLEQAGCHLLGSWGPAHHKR

SMILES | remaining binding at 1 µM (BLK; @1000nM, read-out: %Control) | remaining binding at 1 µM (BLK; read-out: %Control @1000nM) | remaining binding at 1 µM (CSF1R-autoinhibited; @1000nM, read-out: %Control) | remaining binding at 1 µM (CSF1R-autoinhibited; read-out: %Control @1000nM) | remaining binding at 1 µM (CSK; @1000nM, read-out: %Control) | remaining binding at 1 µM (CSK; read-out: %Control @1000nM) | remaining binding at 1 µM (ERBB2; @1000nM, read-out: %Control) | remaining binding at 1 µM (ERBB2; read-out: %Control @1000nM) | remaining binding at 1 µM (ERBB3; @1000nM, read-out: %Control) | remaining binding at 1 µM (ERBB3; read-out: %Control @1000nM) | remaining binding at 1 µM ([1]; @1000nM, read-out: %Control) | remaining binding at 1 µM ([1]; read-out: %Control @1000nM) | difference in %Control versus compound Ib at 1 µM ([2]; @1000nM) | remaining binding at 1 µM ([2]; @1000nM, read-out: %Control) | remaining binding at 1 µM ([2]; read-out: %Control @1000nM) | difference in %Control vs reference Ib at 1 µM (BLK; @1000nM) | difference in %Control versus compound Ib at 1 µM (BMX; @1000nM) | remaining binding at 1 µM (BMX; @1000nM, read-out: %Control) | remaining binding at 1 µM (BMX; read-out: %Control @1000nM) | difference in %Control versus compound Ib at 1 µM (CSF1R-autoinhibited; @1000nM) | further results
C=CC(=O)N1CCC[C@@H](n2nc(-c3ccc(Oc4ccccc4)cc3)c3c(N)ncnc32)C1 [Compound 1g, Ibrutinib, reference compound] | 0.05% | 0.05% | 77% | 77% | 4.5% | 4.5% | 0% | 0% | 0% | 0% | 94% | 94% |  |  |  |  |  |  |  |  | inhibition at 1 µM (BLK; ScanTK, 1 μM): > 99%; inhibition at 1 µM (ERBB2; ScanTK, 1 μM): > 99%; inhibition at 1 µM (ERBB3; read-out: % inhibition, ERBB3): > 99%
Cc1cnc(S(C)(=O)=O)nc1N1CCCC(n2nc(-c3ccc(Oc4ccccc4)cc3)c3c(N)ncnc32)C1 (stereo not drawn) [Compound 8a, 1-(1-(5-Methyl-2-(methylsulfonyl)pyrimidin-4-yl)piperidin-3-yl)-3-(4-phenoxyphenyl)-1H-pyrazolo[3,4-d]pyrimidin-4-amine] | 0.1% | 0.1% | 88% | 88% | 6.6% | 6.6% | 53% | 53% | 0% | 0% | 94% | 94% | -9% | 70% | 70% | 0.05% | -3% | 38% | 38% | 11% | difference in %Control from reference compound Ib at 1 µM (CSK; @1000nM): 2.1%; difference in % of control versus compound Ib at 1 µM (EGFR(L861Q); @1000nM): 81.2%; remaining binding at 1 µM (EGFR(L861Q); @1000nM, read-out: %Control): 82%; remaining binding at 1 µM (EGFR(L861Q); read-out: %Control @1000nM): 82%; difference in %Control versus compound Ib at 1 µM (ERBB2; @1000nM): 53%; % of control difference from compound Ib at 1 µM (ERBB3; @1000nM): 0%; difference in %Control versus compound Ib at 1 µM (INSRR; @1000nM): -2%; remaining binding at 1 µM (INSRR; @1000nM, read-out: %Control): 94%; remaining binding at 1 µM (INSRR; read-out: %Control @1000nM): 94%; difference in %Control versus compound Ib at 1 µM ([1]; @1000nM): 0%; remaining binding at 1 µM (TNK2; @1000nM, read-out: %Control): 96%; remaining binding at 1 µM (TNK2; read-out: %Control @1000nM): 96%
COC(=O)c1cnc(S(C)(=O)=O)nc1N1CCCC(n2nc(-c3ccc(Oc4ccccc4)cc3)c3c(N)ncnc32)C1 (stereo not drawn) [Compound 8b, Methyl 4-(3-(4-Amino-3-(4-phenoxyphenyl)-1H-pyrazolo[3,4-d]pyrimidin-1-yl)piperidin-1-yl)-2-(methylsulfonyl)pyrimidine-5-carboxylate] | 0.4% | 0.4% | 84% | 84% | 26% | 26% | 41% | 41% | 2.3% | 2.3% | 97% | 97% | -11% | 68% | 68% | 0.35% | 12% | 53% | 53% | 7% | difference in %Control from reference compound Ib at 1 µM (CSK; @1000nM): 21.5%; difference in % of control versus compound Ib at 1 µM (EGFR(L861Q); @1000nM): 56.2%; remaining binding at 1 µM (EGFR(L861Q); @1000nM, read-out: %Control): 57%; remaining binding at 1 µM (EGFR(L861Q); read-out: %Control @1000nM): 57%; difference in %Control versus compound Ib at 1 µM (ERBB2; @1000nM): 41%; % of control difference from compound Ib at 1 µM (ERBB3; @1000nM): 2.3%; difference in %Control versus compound Ib at 1 µM (INSRR; @1000nM): 0%; remaining binding at 1 µM (INSRR; @1000nM, read-out: %Control): 96%; remaining binding at 1 µM (INSRR; read-out: %Control @1000nM): 96%; difference in %Control versus compound Ib at 1 µM ([1]; @1000nM): 3%; remaining binding at 1 µM (TNK2; @1000nM, read-out: %Control): 100%; remaining binding at 1 µM (TNK2; read-out: %Control @1000nM): 100%
CCOC(=O)c1cnc(S(C)(=O)=O)nc1N1CCC[C@@H](n2nc(-c3ccc(Oc4ccccc4)cc3)c3c(N)ncnc32)C1 [Compound 8c, Ethyl (R)-4-(3-(4-Amino-3-(4-phenoxyphenyl)-1H-pyrazolo[3,4-d]pyrimidin-1-yl)piperidin-1-yl)-2-(methylsulfonyl)pyrimidine-5-carboxylate] | 0.2% | 0.2% | 97% | 97% | 30% | 30% | 48% | 48% | 39% | 39% | 100% | 100% | -7% | 72% | 72% | 0.15% | 28% | 69% | 69% | 20% | difference in %Control from reference compound Ib at 1 µM (CSK; @1000nM): 25.5%; difference in % of control versus compound Ib at 1 µM (EGFR(L861Q); @1000nM): 81.2%; remaining binding at 1 µM (EGFR(L861Q); @1000nM, read-out: %Control): 82%; remaining binding at 1 µM (EGFR(L861Q); read-out: %Control @1000nM): 82%; difference in %Control versus compound Ib at 1 µM (ERBB2; @1000nM): 48%; % of control difference from compound Ib at 1 µM (ERBB3; @1000nM): 39%; difference in %Control versus compound Ib at 1 µM (INSRR; @1000nM): -9%; remaining binding at 1 µM (INSRR; @1000nM, read-out: %Control): 87%; remaining binding at 1 µM (INSRR; read-out: %Control @1000nM): 87%; difference in %Control versus compound Ib at 1 µM ([1]; @1000nM): 6%; remaining binding at 1 µM (TNK2; @1000nM, read-out: %Control): 94%; remaining binding at 1 µM (TNK2; read-out: %Control @1000nM): 94%
